Experimental data: the supplement of paper PMC10307832

Experiments:
Assay in all cases: relative viability (nuclei count vs DMSO), 5 days (fraction); higher = more cells survive
JZL-184 + Trametinib = compound: C1CN(CCC1C(C2=CC3=C(C=C2)OCO3)(C4=CC5=C(C=C4)OCO5)O)C(=O)OC6=CC=C(C=C6)[N+](=O)[O-] [JZL-184] + CC(=O)Nc1cccc(-n2c(=O)n(C3CC3)c(=O)c3c(Nc4ccc(I)cc4F)n(C)c(=O)c(C)c32)c1 [Trametinib] (partner 0.02 µM)
Procedure, shortened: (§1)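 Values are medians from duplicate plates. Each reflects relative viability, defined as the nuclei count of treated wells over that of vehicle wells. Lung cancer cell lines in 1536-well plates were pin-tool dosed one day after seeding with one drug alone or with a fixed anchor-drug dose plus five library-drug doses (not always all listed) in √10 steps, then fixed, stained and imaged at 4× after 5 days.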

JZL-184 + Olaparib = compound: C1CN(CCC1C(C2=CC3=C(C=C2)OCO3)(C4=CC5=C(C=C4)OCO5)O)C(=O)OC6=CC=C(C=C6)[N+](=O)[O-] [JZL-184] + O=C(c1cc(Cc2n[nH]c(=O)c3ccccc23)ccc1F)N1CCN(C(=O)C2CC2)CC1 [Olaparib] (partner 8 µM)
Procedure, shortened: as §1

JZL-184 + Linsitinib = compound: C1CN(CCC1C(C2=CC3=C(C=C2)OCO3)(C4=CC5=C(C=C4)OCO5)O)C(=O)OC6=CC=C(C=C6)[N+](=O)[O-] [JZL-184] + C[C@]1(O)C[C@@H](c2nc(-c3ccc4ccc(-c5ccccc5)nc4c3)c3c(N)nccn32)C1 [Linsitinib] (partner 1 µM)
Procedure, shortened: as §1

JZL-184 + Pemetrexed = compound: C1CN(CCC1C(C2=CC3=C(C=C2)OCO3)(C4=CC5=C(C=C4)OCO5)O)C(=O)OC6=CC=C(C=C6)[N+](=O)[O-] [JZL-184] + Nc1nc2[nH]cc(CCc3ccc(C(=O)N[C@@H](CCC(=O)O)C(=O)O)cc3)c2c(=O)[nH]1 [Pemetrexed] (partner 0.2 µM)
Procedure, shortened: as §1

JZL-184 + Crizotinib = compound: C1CN(CCC1C(C2=CC3=C(C=C2)OCO3)(C4=CC5=C(C=C4)OCO5)O)C(=O)OC6=CC=C(C=C6)[N+](=O)[O-] [JZL-184] + C[C@@H](Oc1cc(-c2cnn(C3CCNCC3)c2)cnc1N)c1c(Cl)ccc(F)c1Cl [Crizotinib] (partner 1 µM)
Procedure, shortened: as §1

Cell Line | relative viability (JZL-184 + Trametinib; first compound 0.04 µM) | relative viability (JZL-184 + Trametinib; first compound 0.4 µM) | relative viability (JZL-184 + Trametinib; first compound 1.265 µM) | relative viability (JZL-184 + Trametinib; first compound 4 µM) | relative viability (JZL-184 + Olaparib; first compound 0.04 µM) | relative viability (JZL-184 + Olaparib; first compound 0.4 µM) | relative viability (JZL-184 + Olaparib; first compound 1.265 µM) | relative viability (JZL-184 + Olaparib; first compound 4 µM) | relative viability (JZL-184 + Linsitinib; first compound 0.04 µM) | relative viability (JZL-184 + Linsitinib; first compound 0.4 µM) | relative viability (JZL-184 + Linsitinib; first compound 1.265 µM) | relative viability (JZL-184 + Linsitinib; first compound 4 µM) | relative viability (JZL-184 + Pemetrexed; first compound 0.04 µM) | relative viability (JZL-184 + Pemetrexed; first compound 0.4 µM) | relative viability (JZL-184 + Pemetrexed; first compound 1.265 µM) | relative viability (JZL-184 + Pemetrexed; first compound 4 µM) | relative viability (JZL-184 + Crizotinib; first compound 0.04 µM) | relative viability (JZL-184 + Crizotinib; first compound 0.4 µM) | relative viability (JZL-184 + Crizotinib; first compound 1.265 µM) | relative viability (JZL-184 + Crizotinib; first compound 4 µM)
201T | 0.676 | 0.724 | 0.706 | 0.688 | 0.858 | 0.845 | 0.82 | 0.841 | 1.03 | 1.01 | 1.05 | 1.02 | 0.355 | 0.351 | 0.348 | 0.293 | 1.06 | 1.03 | 1.01 | 1.01
A-427 | 0.757 | 0.75 | 0.821 | 0.684 | 0.807 | 0.739 | 0.77 | 0.732 | 1.15 | 1.17 | 1.18 | 1.1 | 1.03 | 0.971 | 1.06 | 0.886 | 1.03 | 0.907 | 0.914 | 0.77
ABC-1 | – | – | – | – | 0.821 | 0.814 | 0.842 | 0.829 | 0.988 | 0.821 | 0.812 | 0.756 | – | – | – | – | 1.35 | 0.925 | 1.33 | 1.21
BEN | 0.967 | 1.06 | 1.07 | 1.04 | 1.15 | 1.01 | 1.24 | 1.03 | 1.19 | 0.881 | 0.995 | 0.995 | 0.811 | 0.787 | 0.887 | 1.02 | 1 | 0.87 | 1.02 | 0.861
CAL-12T | 0.341 | 0.356 | 0.352 | 0.341 | 0.836 | 0.701 | 0.786 | 0.777 | 1.06 | 0.775 | 0.828 | 0.75 | 1.4 | 0.997 | 1.22 | 1.08 | 0.993 | 0.607 | 0.621 | 0.497
COR-L23 | 0.774 | 0.516 | 0.684 | 0.54 | 0.379 | 0.365 | 0.315 | 0.4 | 1.15 | 0.926 | 0.92 | 0.837 | 0.195 | 0.191 | 0.179 | 0.192 | 0.704 | 0.725 | 0.723 | 0.636
COR-L 105 | 0.454 | 0.443 | 0.439 | 0.414 | 0.686 | 0.775 | 0.663 | 0.679 | 1.11 | 0.806 | 0.83 | 0.828 | 1.23 | 1.07 | 1.18 | 1.09 | 0.985 | 0.735 | 0.822 | 0.696
ChaGo-K-1 | 0.925 | 0.849 | 0.929 | 0.788 | 0.485 | 0.411 | 0.447 | 0.41 | – | – | – | – | 0.262 | 0.257 | 0.256 | 0.266 | 1.31 | 1.08 | 1.08 | 1.06
EKVX | 0.322 | 0.348 | 0.364 | 0.359 | 0.851 | 0.778 | 0.769 | 0.834 | 0.987 | 1.01 | 0.948 | 0.937 | 0.364 | 0.326 | 0.352 | 0.403 | 0.934 | 0.972 | 1.02 | 0.741
EMC-BAC-2 | 0.955 | 0.899 | 0.832 | 0.827 | 0.473 | 0.479 | 0.491 | 0.492 | 0.855 | 0.793 | 0.791 | 0.784 | 0.452 | 0.423 | 0.454 | 0.473 | 0.939 | 0.726 | 0.785 | 0.704
EPLC-272H | 0.288 | 0.32 | 0.272 | 0.23 | 0.68 | 0.613 | 0.805 | 0.778 | 1.19 | 1.11 | 1.35 | 1.14 | 0.316 | 0.22 | 0.351 | 0.319 | 1.03 | 0.814 | 1.93 | 1.03
H3255 | 0.71 | 0.581 | 0.684 | 0.549 | 0.614 | 0.574 | 0.587 | 0.481 | 1.05 | 0.917 | 1.09 | 0.892 | 0.632 | 0.49 | 0.522 | 0.553 | 1.17 | 0.748 | 0.91 | 0.786
HARA | 0.678 | – | 0.652 | 0.696 | 0.762 | – | 0.762 | 0.947 | 0.97 | 0.869 | 0.935 | 0.994 | 0.289 | – | 0.268 | 0.254 | 1.17 | 0.99 | 0.995 | 1.03
HCC-15 | 0.384 | 0.353 | 0.413 | 0.431 | 0.725 | 0.685 | 0.771 | 0.736 | 0.939 | 0.889 | 1 | 0.781 | 0.222 | 0.217 | 0.212 | 0.23 | 0.944 | 0.808 | 0.883 | 0.762
HCC-44 | 1.04 | 1.07 | 1.04 | 1.01 | 1.04 | 0.98 | 0.97 | 0.928 | 0.619 | 0.631 | 0.728 | 0.636 | 0.708 | 0.621 | 0.688 | 0.64 | 0.815 | 0.78 | 0.815 | 0.783
HCC-78 | 0.705 | – | 0.912 | 0.565 | 0.823 | – | 0.831 | 0.768 | 0.355 | 0.513 | 0.535 | 0.474 | 0.895 | – | 0.875 | 0.919 | 0.34 | 0.317 | 0.359 | 0.341
